Assay results taken from US20230085307A1, “PYRIDAZINONE COMPOUND AND HERBICIDE” (NISSAN CHEMICAL CORPORATION, priority 2019, published 2023).

What was measured:
[1] = system: late watergrass; test: Test Example 1: herbicidal activity, application before weed generation under submerged conditions (Table 16, symbol A); type: in vivo, late watergrass (Echinochloa oryzicola); settings: 320 g/ha applied herbicide
How it was run: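 Emulsion formulation, water-diluted to set dose, was put onto the flooded surface (4 cm depth, alluvial soil) the same day weeds were sown and 2.5-leaf rice transplanted. After 3 weeks at 25-30 °C under glass, each species was rated 0 (≤5% kill) to 5 (≥90% kill).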

[2] = system: blackgrass; test: Test Example 4: herbicidal effect by soil treatment (Table 19, symbol J); type: in vivo, blackgrass (Alopecurus myosuroides)
How it was run: (§1)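 Seeds were sown in sterilized diluvial soil and covered with about 1.5 cm of soil. An emulsion formulation diluted with water to a predetermined herbicide amount was sprayed evenly onto the soil surface. Plants grew in a greenhouse at 25° C. to 30° C., and the effect was scored three weeks after application using criteria from an earlier test.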

[3] = system: green foxtail; test: Test Example 5: herbicidal effect by foliage application, plastic box (Table 20, symbol G); type: in vivo, green foxtail (Setaria viridis); settings: foliage application
How it was run: (§2)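 Plants sown in sterilized diluvial soil and grown 14 days in a greenhouse at 25° C to 30° C, then sprayed on the foliage with the compound's emulsion diluted in water to a predetermined herbicide amount. Injury to weeds and crops scored three weeks after application on a visual rating scale.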

[4] = system: wild oat; test: Test Example 5: herbicidal effect by foliage application, plastic box (Table 20, symbol I); type: in vivo, wild oat (Avena fatua); settings: foliage application
How it was run: as §2

[5] = system: oval-leafed pondweed; test: Test Example 2: herbicidal activity, application during weed generation under submerged conditions (Table 17, symbol C); type: in vivo, oval-leafed pondweed (Monochoria vaginalis); settings: AAH 320 g/ha; application during weed generation, submerged conditions
How it was run: (§3)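 Mixed weed seedlings in alluvial soil under a 4 cm water layer, greenhouse-grown at 25–30° C. Compound given as a diluted emulsion into the floodwater at the 1–2 leaf stage; response graded after three weeks.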

[6] = system: chickweed; test: Test Example 5: herbicidal effect by foliage application, plastic box (Table 20, symbol P); type: in vivo, common chickweed (Stellaria media); settings: foliage application
How it was run: as §2

[7] = system: green foxtail; test: Test Example 4: herbicidal effect by soil treatment (Table 19, symbol G); type: in vivo, green foxtail (Setaria viridis)
How it was run: as §1

[8] = system: rice flat sedge; test: Test Example 3: herbicidal effect by foliage application, Wagner pot (Table 18, symbol E); type: in vivo, rice flat sedge (Cyperus iria); settings: for herbicidal effect on E (rice flat sedge), rating 0-5: 320 g/ha; for herbicidal effect on E: rice flat sedge: amount of applied herbicide 320 g/ha
How it was run: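 Plants were sown in alluvial soil held under 0.1–0.5 cm standing water and grown 14 days in a greenhouse at 25–30 °C. An emulsifiable formulation, water-diluted to the set dose, was then sprayed onto the foliage, and effects were scored three weeks later using previously defined criteria.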

[9] = system: windgrass; test: Test Example 5: herbicidal effect by foliage application, plastic box (Table 20, symbol L); type: in vivo, windgrass (Apera spica-venti); settings: foliage application
How it was run: as §2

[10] = system: Italian ryegrass; test: Test Example 4: herbicidal effect by soil treatment (Table 19, symbol K); type: in vivo, Italian ryegrass (Lolium multiflorum)
How it was run: as §1

[11] = system: redroot pigweed; test: Test Example 4: herbicidal effect by soil treatment (Table 19, symbol N); type: in vivo, redroot pigweed (Amaranthus retroflexus)
How it was run: as §1

[12] = system: chickweed; test: Test Example 4: herbicidal effect by soil treatment (Table 19, symbol P); type: in vivo, common chickweed (Stellaria media)
How it was run: as §1

[13] = system: persian speedwell; test: Test Example 5: herbicidal effect by foliage application, plastic box (Table 20, symbol R); type: in vivo, Persian speedwell (Veronica persica); settings: foliage application
How it was run: as §2

[14] = system: southern crabgrass; test: Test Example 5: herbicidal effect by foliage application, plastic box (Table 20, symbol F); type: in vivo, southern crabgrass (Digitaria ciliaris); settings: foliage application
How it was run: as §2

[15] = system: Japanese bulrush; test: Test Example 2: herbicidal activity, application during weed generation under submerged conditions (Table 17, symbol B); type: in vivo, Japanese bulrush (Schoenoplectus juncoides); settings: AAH 320 g/ha; application during weed generation, submerged conditions
How it was run: as §3

[16] = system: southern crabgrass; test: Test Example 4: herbicidal effect by soil treatment (Table 19, symbol F); type: in vivo, southern crabgrass (Digitaria ciliaris)
How it was run: as §1

[17] = 320 g/ha, evaluated three weeks after application
[18] = amount of applied herbicide 320 g/ha
[19] = 320 g/ha, three weeks after application
[20] = AAH 320 g/ha, evaluated three weeks after application

Compound	Herbicidal effect on A: late watergrass (grade 0-5) [1]	herbicidal effect rating, J: blackgrass ([2]; 320 g/ha)	herbicidal effect on G: green foxtail [3, 17]	herbicidal effect on I: wild oat [4, 17]	herbicidal effect rating, C: oval-leafed pondweed [5]	herbicidal effect on P: chickweed [6, 17]	herbicidal effect rating, G: green foxtail ([7]; 320 g/ha)	herbicidal effect on E (rice flat sedge), rating 0-5 [8]	herbicidal effect on L: windgrass [9, 17]	herbicidal effect rating, K: Italian ryegrass ([10]; 320 g/ha)	herbicidal effect rating, N: redroot pigweed ([11]; 320 g/ha)	herbicidal effect rating, P: chickweed ([12]; 320 g/ha)	herbicidal effect on R: persian speedwell [13, 17]	herbicidal effect on F: southern crabgrass [14, 17]	herbicidal effect rating, B: Japanese bulrush [15]	herbicidal effect rating, F: southern crabgrass ([16]; 320 g/ha)	herbicidal effect on J: blackgrass [2, 18]	herbicidal effect on G: green foxtail [7, 18]	herbicidal effect on E: rice flat sedge [8]	herbicidal effect on K: Italian ryegrass [10, 18]	further results
C#CCOc1ccc(-c2sc3ccc(F)cc3c2-c2c(OCOCCOC)c(C)nn(C)c2=O)cc1 [2-055]	0 (Herbicidal rate of 5% or less (almost no effect))	0 (Herbicidal rate of 5% or less (almost no effect))	5 (Herbicidal rate of 90% or more (almost completely withered))	1 (Herbicidal rate of 5% or more and less than 20%)	3 (Herbicidal rate of 40% or more and less than 70%)	5 (Herbicidal rate of 90% or more (almost completely withered))	4 (Herbicidal rate of 70% or more and less than 90%)	4 (Herbicidal rate of 70% or more and less than 90%)	0 (Herbicidal rate of 5% or less (almost no effect))	0 (Herbicidal rate of 5% or less (almost no effect))	4 (Herbicidal rate of 70% or more and less than 90%)	3 (Herbicidal rate of 40% or more and less than 70%)	5 (Herbicidal rate of 90% or more (almost completely withered))	1 (Herbicidal rate of 5% or more and less than 20%)	3 (Herbicidal rate of 40% or more and less than 70%)	1 (Herbicidal rate of 5% or more and less than 20%)					
COc1ccc(-c2sc3ccccc3c2-c2c(O)c(C)nn(C)c2=O)cc1OC [1-072]	3 (Herbicidal rate of 40% or more and less than 70%)				5 (Herbicidal rate of 90% or more (almost completely withered))			5 (Herbicidal rate of 90% or more (almost completely withered))							3 (Herbicidal rate of 40% or more and less than 70%)						herbicidal effect rating, J: blackgrass [2, 18]: 0 (Herbicidal rate of 5% or less (almost no effect)); herbicidal effect grade, G: green foxtail [3, 19]: 5 (Herbicidal rate of 90% or more (almost completely withered)); herbicidal effect grade, I: wild oat [4, 19]: 4 (Herbicidal rate of 70% or more and less than 90%); herbicidal effect grade, P: chickweed [6, 19]: 5 (Herbicidal rate of 90% or more (almost completely withered)); herbicidal effect rating, G: green foxtail [7, 18]: 5 (Herbicidal rate of 90% or more (almost completely withered)); herbicidal effect grade, L: windgrass [9, 19]: 1 (Herbicidal rate of 5% or more and less than 20%); herbicidal effect rating, K: Italian ryegrass [10, 18]: 5 (Herbicidal rate of 90% or more (almost completely withered)); herbicidal effect rating, N: redroot pigweed [11, 18]: 5 (Herbicidal rate of 90% or more (almost completely withered)); herbicidal effect rating, P: chickweed [12, 18]: 4 (Herbicidal rate of 70% or more and less than 90%); herbicidal effect grade, R: persian speedwell [13, 19]: 5 (Herbicidal rate of 90% or more (almost completely withered)); herbicidal effect grade, F: southern crabgrass [14, 19]: 5 (Herbicidal rate of 90% or more (almost completely withered)); herbicidal effect rating, F: southern crabgrass [16, 18]: 5 (Herbicidal rate of 90% or more (almost completely withered))
CCCC(=O)Oc1c(C)nn(C)c(=O)c1-c1c(-c2ccc(SC3CC3)cc2)sc2ccc(F)cc12 [2-255]	5 (Herbicidal rate of 90% or more (almost completely withered))				2 (Herbicidal rate of 20% or more and less than 40%)										3 (Herbicidal rate of 40% or more and less than 70%)		1 (Herbicidal rate of 5% or more and less than 20%)	1 (Herbicidal rate of 5% or more and less than 20%)	5 (Herbicidal rate of 90% or more (almost completely withered))	3 (Herbicidal rate of 40% or more and less than 70%)	G: green foxtail, herbicidal effect (criteria 0-5) [3, 20]: 5 (Herbicidal rate of 90% or more (almost completely withered)); I: wild oat, herbicidal effect (criteria 0-5) [4, 20]: 5 (Herbicidal rate of 90% or more (almost completely withered)); P: chickweed, herbicidal effect (criteria 0-5) [6, 20]: 5 (Herbicidal rate of 90% or more (almost completely withered)); L: windgrass, herbicidal effect (criteria 0-5) [9, 20]: 5 (Herbicidal rate of 90% or more (almost completely withered)); herbicidal effect on N: redroot pigweed [11, 18]: 4 (Herbicidal rate of 70% or more and less than 90%); herbicidal effect on P: chickweed [12, 18]: 4 (Herbicidal rate of 70% or more and less than 90%); R: persian speedwell, herbicidal effect (criteria 0-5) [13, 20]: 5 (Herbicidal rate of 90% or more (almost completely withered)); F: southern crabgrass, herbicidal effect (criteria 0-5) [14, 20]: 5 (Herbicidal rate of 90% or more (almost completely withered)); herbicidal effect on F: southern crabgrass [16, 18]: 0 (Herbicidal rate of 5% or less (almost no effect))
CCCSc1ccc(-c2sc3ccc(F)cc3c2-c2c(OC(=O)CCC)c(C)nn(C)c2=O)cc1 [2-249]	3 (Herbicidal rate of 40% or more and less than 70%)				2 (Herbicidal rate of 20% or more and less than 40%)										0 (Herbicidal rate of 5% or less (almost no effect))		0 (Herbicidal rate of 5% or less (almost no effect))	4 (Herbicidal rate of 70% or more and less than 90%)	5 (Herbicidal rate of 90% or more (almost completely withered))	0 (Herbicidal rate of 5% or less (almost no effect))	herbicidal effect on G: green foxtail (criteria 0-5) [3, 17]: 5 (Herbicidal rate of 90% or more (almost completely withered)); herbicidal effect on I: wild oat (criteria 0-5) [4, 17]: 4 (Herbicidal rate of 70% or more and less than 90%); herbicidal effect on P: chickweed (criteria 0-5) [6, 17]: 5 (Herbicidal rate of 90% or more (almost completely withered)); herbicidal effect on L: windgrass (criteria 0-5) [9, 17]: 4 (Herbicidal rate of 70% or more and less than 90%); herbicidal effect on N: redroot pigweed [11, 18]: 5 (Herbicidal rate of 90% or more (almost completely withered)); herbicidal effect on P: chickweed [12, 18]: 0 (Herbicidal rate of 5% or less (almost no effect)); herbicidal effect on R: persian speedwell (criteria 0-5) [13, 17]: 5 (Herbicidal rate of 90% or more (almost completely withered)); herbicidal effect on F: southern crabgrass (criteria 0-5) [14, 17]: 5 (Herbicidal rate of 90% or more (almost completely withered)); herbicidal effect on F: southern crabgrass [16, 18]: 3 (Herbicidal rate of 40% or more and less than 70%)
Cc1nn(C)c(=O)c(-c2c(-c3ccc(OCC4CC4)cc3)sc3ccc(F)cc23)c1O [2-060]	0 (Herbicidal rate of 5% or less (almost no effect))	0 (Herbicidal rate of 5% or less (almost no effect))	3 (Herbicidal rate of 40% or more and less than 70%)	0 (Herbicidal rate of 5% or less (almost no effect))	1 (Herbicidal rate of 5% or more and less than 20%)	5 (Herbicidal rate of 90% or more (almost completely withered))	1 (Herbicidal rate of 5% or more and less than 20%)	5 (Herbicidal rate of 90% or more (almost completely withered))	4 (Herbicidal rate of 70% or more and less than 90%)	0 (Herbicidal rate of 5% or less (almost no effect))	5 (Herbicidal rate of 90% or more (almost completely withered))	1 (Herbicidal rate of 5% or more and less than 20%)	5 (Herbicidal rate of 90% or more (almost completely withered))	4 (Herbicidal rate of 70% or more and less than 90%)	3 (Herbicidal rate of 40% or more and less than 70%)	3 (Herbicidal rate of 40% or more and less than 70%)					
